Experimental data: patent US20060079552A1, “1-[2-(4-benzyl-4-hydroxy-piperidin-1-yl)-ethyl]-3-(2-methyl-quinolin-4-yl)-urea salt” (priority 2004, published 2006)
Values after ≈ are worked out from the molar mass of the structure shown. Where a name gives a salt, the structure may show the parent alone.

Legend:
[1] = Hygroscopicity, static method (European Pharmacopoeia Technical Guide), weight increase in humidity cabinet; assay type: physicochemical; conditions: for Increase in weight (Δm): after exposure to 79% RH for 24 h, RT
Procedure: Hygroscopicity was evaluated using the static method according to European Pharmacopoeia Technical Guide. Weight increase of the compound was observed when stored in a humidity cabinet at RT/79% RH for 24 h.

[2] = Solubility in water and aqueous phosphate buffer pH 7; assay type: physicochemical; conditions: for Solubility Buffer pH 7 (phosphate, 100 mM): aqueous phosphate buffer pH 7, 100 mM
Procedure: Solubility was measured in water and aqueous phosphate buffer (pH=7, 100 mM). Results are expressed as mg dissolved compound per mL solvent.

[3] = Pharmacokinetic assessment after oral (gavage) administration in rats; assay type: in vivo, male Wistar rats; conditions: for mean exposure, area under the curve (AUC0-inf.): oral (gavage) 10 mg per kg, male Wistar rats, blood samples over 24 h
Procedure: The pharmacokinetic parameters after oral (gavage) administration of 10 mg per kg of 1-[2-(4-benzyl-4-hydroxy-piperidin-1-yl )-ethyl]-3-(2-methyl-quinolin-4-yl )-urea given as free base or sulfate salt have been determined in male Wistar rats. Blood samples were taken over a time period of 24 h after dosing and analysed with a specific and sensitive liquid chromatography-mass-spectrometry (LC-MS/MS) method. Pharmacokinetic parameters were calculated using a non-compartmental method. The mean exposure of 1-[2-(4-benzyl-4-hydroxy-piperidin-1-yl)-ethyl]-3-(2-methyl-quinolin-4-yl)-urea, expressed as area under the curve (AUC0-inf.), after administration of compound I as free base was 194 ng*h/mL. The mean exposure of 1-[2-(4-benzyl-4-hydroxy-piperidin-1-yl )-ethyl]-3-(2-methyl-quinolin-4-yl )-urea expressed as area under the curve (AUC0-inf.), after administration of the compound described in Example 1 was 396 ng*h/mL.

[4] = Stress test / behaviour at higher temperature and higher humidity; assay type: physicochemical
Procedure: NMR spectra were recorded on a Varian Mercury 300VX NMR Spectrometer. The spectra are referenced to tetramethylsilane as external standard. X-ray diffraction patterns (XRD) were recorded on a Bruker D5000, using a CU-Kalpha (1.5418 Å) source, a 40 kV-30 mA generator, in a range of 3 et 40° (2theta). Stress test studies were done by exposing samples in open and closed glass bottles to the following conditions: 60° C./80% RH (8 weeks) and 80° C./RH not controlled (48 h).

urotensin II receptor = molecular target: T1, urotensin II receptor (Homo sapiens, UniProt Q9UKP6); conditions: Clozel et al., J. Pharmcol. Exp. Ther. 2004, 311, 204-212; cited from earlier work
T1 sequence (Q9UKP6 1-389): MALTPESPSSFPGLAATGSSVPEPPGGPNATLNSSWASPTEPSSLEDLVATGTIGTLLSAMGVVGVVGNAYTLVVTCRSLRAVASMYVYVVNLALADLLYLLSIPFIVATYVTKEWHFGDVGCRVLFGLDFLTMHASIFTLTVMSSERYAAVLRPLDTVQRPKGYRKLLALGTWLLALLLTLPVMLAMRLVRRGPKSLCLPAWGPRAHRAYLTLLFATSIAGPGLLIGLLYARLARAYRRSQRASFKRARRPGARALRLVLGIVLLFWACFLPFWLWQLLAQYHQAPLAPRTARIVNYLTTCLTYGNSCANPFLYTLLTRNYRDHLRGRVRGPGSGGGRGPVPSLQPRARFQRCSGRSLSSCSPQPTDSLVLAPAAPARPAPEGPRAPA

Cc1cc(NC(=O)NCCN2CCC(O)(Cc3ccccc3)CC2)c2ccccc2n1 [Compound I, 1-[2-(4-Benzyl-4-hydroxy-piperidin-1-yl)-ethyl]-3-(2-methyl-quinolin4-yl)-urea]
hygroscopicity (in words) [1]: hygroscopic
Increase in weight (Δm) ([1]; listed as Compound I as free base): 8%
Solubility Buffer pH 7 (phosphate, 100 mM) [2]: 0.31 mg/mL
Solubility water ([2]; water): 0.8 mg/mL (≈ 1910 µM)
solubility in water at pH 7 (in words) ([2]; water at pH 7): slightly soluble
mean exposure, area under the curve (AUC0-inf.) ([3]; listed as compound I as free base): 194 ng·h/mL
bioavailability after oral dosing ([3]; rat, oral dosing): low bioavailability
agglomeration [4]: agglomerates to a substance cake
colour stability [4]: its colour changes at higher temperature and higher humidity
urotensin II receptor antagonism (urotensin II receptor): potent urotensin II receptor antagonist

Cc1cc(NC(=O)NCCN2CCC(O)(Cc3ccccc3)CC2)c2ccccc2n1 [Example 1, 1-[2-(4-Benzyl-4-hydroxy-piperidin-1-yl)-ethyl]-3-(2-methyl-quinolin-4-yl)-urea sulfate]
mean exposure, area under the curve (AUC0-inf.) ([3]; sulfate): 396 ng·h/mL

Cc1cc(NC(=O)NCCN2CCC(O)(Cc3ccccc3)CC2)c2ccccc2n1 [Example 2, 1-[2-(4-Benzyl-4-hydroxy-piperidin-1-yl)-ethyl]-3-(2-methyl-quinolin-4-yl)-urea sulfate]
Increase in weight (Δm) ([1]; sulfate): 4%
Solubility Buffer pH 7 (phosphate, 100 mM) ([2]; sulfate): 27 mg/mL
Solubility water ([2]; water, sulfate): 11.3 mg/mL

Cc1cc(NC(=O)NCCN2CCC(O)(Cc3ccccc3)CC2)c2ccccc2n1 [Example 5, 1-[2-(4-Benzyl-4-hydroxy-piperidin-1-yl)-ethyl]-3-(2-methyl-quinolin-4-yl)-urea malate]
Solubility water ([2]; water, malate): >101 mg/mL

Cc1cc(NC(=O)NCCN2CCC(O)(Cc3ccccc3)CC2)c2ccccc2n1.O=C(O)CC(O)(CC(=O)O)C(=O)O [Example 6, 1-[2-(4-Benzyl-4-hydroxy-piperidin-1-yl)-ethyl]-3-(2-methyl-quinolin-4-yl)-urea citrate]
solubility ([2]; water): 17.8 mg/mL
